# Measured values as given in patent US9364467B2 (Salix Pharmaceuticals, Ltd, priority 2012, dated 2016).
# System: Enterobacteriaceae spp. strains
# Test: In vitro activity (MIC) against Enterobacteriaceae spp. strains
structure (smiles),measurement,setting,value
COC1/C=C/O[C@@]2(C)Oc3c(C)c(O)c4c(O)c(c5c(c4c3C2=O)NC2C=C(C)C=CN52)NC(=O)/C(C)=C\C=C\C(C)C(O)C(C)C(O)C(C)C(O)C1C (stereo partly drawn) [25-desacetyl rifaximin],MIC,"Escherichia coli, E. coli 342",128 µg/mL
same,MIC,"Escherichia coli, E. coli 343",256 µg/mL
same,MIC,"Escherichia coli, E. coli 345",128 µg/mL
same,MIC,"Escherichia coli, E. coli 349",128 µg/mL
same,MIC,"Escherichia coli, E. coli 351",128 µg/mL
same,MIC,"Klebsiella aerogenes, E. aerogenes 235",128 µg/mL
same,MIC,"Klebsiella aerogenes, E. aerogenes 281",128 µg/mL
same,MIC,"Klebsiella aerogenes, E. aerogenes 290",128 µg/mL
same,MIC,"Klebsiella aerogenes, E. aerogenes 1023",128 µg/mL
same,MIC,"Klebsiella aerogenes, E. aerogenes 1030",256 µg/mL
same,MIC,"Klebsiella aerogenes, E. aerogenes 1031",128 µg/mL
same,MIC,"Klebsiella oxytoca, K. oxytoca 4",128 µg/mL
same,MIC,"Klebsiella oxytoca, K. oxytoca 18",128 µg/mL
same,MIC,"Klebsiella oxytoca, K. oxytoca 479",128 µg/mL
same,MIC,"Klebsiella oxytoca, K. oxytoca 499",128 µg/mL
same,MIC,"Klebsiella pneumoniae, K. pneumoniae 17",128 µg/mL
same,MIC,"Klebsiella pneumoniae, K. pneumoniae 19",128 µg/mL
same,MIC,"Klebsiella pneumoniae, K. pneumoniae 76",256 µg/mL
same,MIC,"Klebsiella pneumoniae, K. pneumoniae 80",128 µg/mL
same,MIC,"Klebsiella pneumoniae, K. pneumoniae 91",128 µg/mL
same,MIC,"Klebsiella pneumoniae, K. pneumoniae 1064",128 µg/mL
same,MIC,"Morganella morganii, M. morganii 42",128 µg/mL
same,MIC,"Morganella morganii, M. morganii 48",128 µg/mL
same,MIC,"Morganella morganii, M. morganii 50",128 µg/mL
same,MIC,"Morganella morganii, M. morganii 57",256 µg/mL
same,MIC,"Morganella morganii, M. morganii 67",256 µg/mL
same,MIC,"Morganella morganii, M. morganii 101",128 µg/mL
same,MIC,"Morganella morganii, M. morganii 105",128 µg/mL
same,MIC,"Morganella morganii, M. morganii 108",128 µg/mL
same,MIC,"Morganella morganii, M. morganii 453",128 µg/mL
same,MIC,"Morganella morganii, M. morganii 458",256 µg/mL
same,MIC,"Morganella morganii, M. morganii 461",128 µg/mL
same,MIC,"Morganella morganii, M. morganii 462",128 µg/mL
same,MIC,"Morganella morganii, M. morganii 923",128 µg/mL
same,MIC,"Morganella morganii, M. morganii 932",128 µg/mL
same,MIC,"Morganella morganii, M. morganii 935",256 µg/mL
same,MIC,"Morganella morganii, M. morganii 1006",128 µg/mL
same,MIC,"Proteus mirabilis, P. mirabilis 465",128 µg/mL
same,MIC,"Proteus mirabilis, P. mirabilis 466",128 µg/mL
same,MIC,"Proteus mirabilis, P. mirabilis 469",128 µg/mL
same,MIC,"Proteus mirabilis, P. mirabilis 470",128 µg/mL
same,MIC,"Proteus mirabilis, P. mirabilis 471",256 µg/mL
same,MIC,"Proteus mirabilis, P. mirabilis 472",128 µg/mL
same,MIC,"Proteus mirabilis, P. mirabilis 473",128 µg/mL
same,MIC,"Proteus mirabilis, P. mirabilis 477",128 µg/mL
same,MIC,"Proteus mirabilis, P. mirabilis 479",128 µg/mL
same,MIC,"Proteus mirabilis, P. mirabilis 480",256 µg/mL
same,MIC,"Proteus mirabilis, P. mirabilis 489",128 µg/mL
same,MIC,"Proteus mirabilis, P. mirabilis 928",128 µg/mL
same,MIC,"Proteus mirabilis, P. mirabilis 972",128 µg/mL
same,MIC,"Proteus mirabilis, P. mirabilis 983",128 µg/mL
same,MIC,"Proteus mirabilis, P. mirabilis 985",256 µg/mL
same,MIC,"Proteus mirabilis, P. mirabilis 987",128 µg/mL
same,MIC,"Proteus mirabilis, P. mirabilis 988",128 µg/mL
same,MIC,"Proteus mirabilis, P. mirabilis 990",128 µg/mL
same,MIC,"Proteus mirabilis, P. mirabilis 991",128 µg/mL
same,MIC,"Proteus mirabilis, P. mirabilis 993",128 µg/mL
same,MIC,"Proteus mirabilis, P. mirabilis 995",128 µg/mL
same,MIC,"Proteus mirabilis, P. mirabilis 996",128 µg/mL
same,MIC,"Proteus mirabilis, P. mirabilis 997",128 µg/mL
same,MIC,"Proteus mirabilis, P. mirabilis 998",256 µg/mL
same,MIC,"Providencia stuartii, P. stuartii 94",128 µg/mL
same,MIC,"Providencia stuartii, P. stuartii 299",128 µg/mL
same,MIC,"Providencia stuartii, P. stuartii 301",128 µg/mL
same,MIC,"Providencia stuartii, P. stuartii 306",256 µg/mL
same,MIC,"Providencia stuartii, P. stuartii 312",128 µg/mL
same,MIC,"Providencia stuartii, P. stuartii 459",128 µg/mL
same,MIC,S. liquefaciens 55,256 µg/mL
same,MIC,S. odorifera 59,128 µg/mL
same,MIC,"Serratia marcescens, S. marcescens 38",128 µg/mL
same,MIC,"Serratia marcescens, S. marcescens 45",128 µg/mL
same,MIC,"Serratia marcescens, S. marcescens 59",128 µg/mL
same,MIC,"Serratia marcescens, S. marcescens 63",256 µg/mL
same,MIC,"Stenotrophomonas maltophilia, S. maltophilia 1203",128 µg/mL
same,MIC,"Stenotrophomonas maltophilia, S. maltophilia 1208",128 µg/mL
